Series [1] concerns Rat DRG. Kind of series: Rat dorsal root ganglion excitability response (EFS, Ca2+ transients). Type of series: cell-based. The procedure: Dorsal root ganglions (DRGs) were dissected from adult rats. The tissue was processed, and cells were seeded into call culture plates (48 center wells of one quadrant in 384-well plates) and cultured for 2 days prior to Electrical field stimulation (EFS). To visualize the neuronal excitability response, intracellular Ca^+2 transients were monitored using the Ca^+2 indicator, Ca5. Ca5 was added to the cultures 1 h prior to EFS. Representative test compounds of the invention (i.e., test compounds) and reference compound, tetracaine, were added in concentration-response format encompassing six concentrations, performed in duplicate. The highest concentration tested was typically 30 μM with 1 in 3 dilutions generating the subsequent concentrations.
Effects on DRG excitability by the test compounds and standard were evaluated using four EFS protocols as disclosed in Table 2.
Experimental results were performed using two separate sets of plates using separate test compound and standard dilutions, to provide n=2. In the first set of experiments, compounds were added 24 h prior to EFS to increase the possibility to also detect more long-term compound effects. In the second set of experiments the compounds were added directly prior to EFS. Excitability response to EFS was analyzed as the average fluorescence ratio (peak/baseline) change per well. All plates were evaluated using high content imaging equipment post-EFS, imaging the Ca5 background staining to detect any possible compound-related toxic effects.
Average response by the standard compound, tetracaine, was 4.05 μM.

Series [2] can be described thus: Metabolism by human liver microsomes. In kind it is in vitro ADME. As to conditions: in the presence of NADPH; for Scoring (% of drug remaining after 60 minutes, PDR60): Table 8, 10 µM, 1 mg/mL protein. The procedure: Representative compounds of the invention (i.e., test compounds) and the positive control, 7-ethoxycoumarin, were prepared as stock solutions at 10 mM in DMSO and eventually diluted to 10 μM in the test plate, with an appropriate amount of acetonitrle and tris HCl buffer. Final DMSO and acetonitrile concentrations were […] and 0.5% respectively. NADPH was prepared in tris HCl buffer to a stock of 10 mM. A frozen aliquot of live microsomes was retrieved from the freezer (−80° C.) and thawed by placing the tube on wet ice. After thawing, the tubes were gently mixed and the required amount, transferred to tris HCl buffer. Test compounds or positive control were pre-incubated, separately, for 10 minutes, with liver microsomes (1 mg/mL protein), at 37° C., in 100 mM Tris HCl at pH 7.5. After preincubation the reaction was started by adding 1 mM NADPH (pre-equilibrated to […]) and the reaction allowed to proceed for 60 minutes. At 60 minutes, a 50 μL aliquot was removed and quenched with 200 uL of acetonitrile containing a mixture of internal standards (Tolbutamide (500 ng/mL) and Telmistartan (500 ng/mL)) and vortexed then centrifuged at 4000 rmp for 10 minutes (Eppendorf 5810R). The supernatant was transferred to a 96 well plate for LC-MS/MS analysis.
An LC-MS/MS method was devised for the test compounds and the control, using a AB Sciex API 4000 system coupled to a NEXAR™ UHPLC (Shimadzu) system. Analytes were separated on a Phenomenex Kinetex C18 column (50×2.1 mm, 5 μm) using a gradient that was appropriate for each compound, at a flow rate of 1 ml/minute, utilizing a mobile phase of 0.1% formic acid in MILLI-Q™ water (A) and 0.1% formic acid in acetonitrile (B). The MS instrument was operated in positive mode (ESI+)/negative (ESI−). The multiple reaction monitoring (MRM) transition for test and control compounds was used for the LC-MS/MS analysis. MRM transitions for control compound 7-ethoxycoumarinm were Quadropole 1: 191.0, Quadropole 3: 163.0, dwell time: 75 msec, using curtain gas settings of 5 V, ion-spray voltage of 5500 V, temperature of 50° C. and gas settings for nebulizer and auxiliary set to 30 and 40 psi, respectively. The interface heater was kept on. Entrance potential and collision cell exit potential were varied to tune for a specific compound.
Using a suitable LC-MS/MS method, the percentage of drug remaining at 60 minutes ([…]) was assessed by comparing the average analyte to internal standard area ratio at 60 minutes to the average analyte to internal standard area ratio at 0 time control, as a percentage, from a 5 to 10 μL sample injection.
According to the above assay, the representative compounds listed in Table 8 below were active in the Human liver microsome assay at […] and the % of drug remaining after 60 minutes (PDR60), in the presence of NADPH, was assessed by LC-MS/MS. Average PDR60 for the standard compound, 7-ethoxycoumarin was <=65% in the presence of NADPH. Scoring for the test compounds, in the presence of NADPH, was as follows: “A” represents a PDR^60 of 81 to 100%, “B” represents a PDR^60 of 61 to 80%, “C” represents a PDR^60 of 31 to 60% and “D” represents a PDR^60 of 0 to 30%.
For orientation: Microsomes from liver hold many membrane-bound enzymes, among them those of drug oxidation.

Setting [3] is: Rattus norvegicus, Table 3, electrical field stimulation, Ca5 indicator, read-out: Scoring (EC50, Rat DRG excitability).

This is an account of results in patent US11420962B2, “Indene derivatives useful in treating pain and inflammation” (TARO PHARMACEUTICALS INC., priority 2018, dated 2022).

Where two headings read alike, the source gives them in different places.

Take `CC=C1CC[C@H]2[C@H](CN)[C@@H]([C@@]3(C)Cc4cn[nH]c4C[C@@H]3CO)CC[C@]12C` [Ia-65, ((5R,6S)-5-((3aS,4R,5S,7aS)-4-(aminomethyl)-1-ethylidene-7a-methyloctahydro-1H-inden-5-yl)-5-methyl-4,5,6,7-tetrahydro-1H-indazol-6-yl)methanol]: the EC50 in series [1] (setting [3]) fell in the range of 6 to 15 µM. Moreover, the “Scoring (% of drug remaining after 60 minutes, PDR60)” value in series [2] is recorded as “A (a PDR^60 of 81 to 100%)”.
The matching figures for `C=C1CC[C@H]2[C@H](CN)[C@@H]([C@@]3(C)Cc4cnn(CC(C)(C)C)c4C[C@@H]3CO)CC[C@]12C` [Ia-22, ((5R,6S)-5-((3aS,4R,5S,7aS)-4-(aminomethyl)-7a-methyl-1-methyleneoctahydro-1H-inden-5-yl)-5-methyl-1-neopentyl-4,5,6,7-tetrahydro-1H-indazol-6-yl)methanol]: 2 to 6 µM and “D (a PDR^60 of 0 to 30%)”.
For the molecule `C[C@H]1CC[C@H]2[C@H](CN)[C@@H]([C@@]3(C)Cc4cnn(-c5ccccn5)c4C[C@@H]3CO)CC[C@]12C` [Ia-42, ((5R,6S)-5-((1S,3aS,4S,5S,7aR)-4-(aminomethyl)-1,7a-dimethyloctahydro-1H-inden-5-yl)-5-methyl-1-(pyridin-2-yl)-4,5,6,7-tetrahydro-1H-indazol-6-yl)methanol], the EC50 in series [1] (setting [3]) is below 2 µM.
Regarding `C[C@H]1CC[C@H]2[C@H](CN)[C@@H]([C@@]3(C)Cc4cnn(-c5ccccc5)c4C[C@@H]3CO)CC[C@]12C` [Ia-35, ((5R,6S)-5-((1S,3aS,4S,5S,7aR)-4-(aminomethyl)-1,7a-dimethyloctahydro-1H-inden-5-yl)-5-methyl-1-phenyl-4,5,6,7-tetrahydro-1H-indazol-6-yl)methanol], the EC50 in series [1] (setting [3]) is below 2 µM.
For `CCCCNc1ccc(C(=O)OCCN(C)C)cc1` [tetracaine, reference compound], in series [1] (Rat DRG excitability, read-out: Average response by the standard compound), the EC50 was determined as 4.05 µM.
In the case of `C=C1CC[C@H]2[C@H](CN)[C@@H]([C@@]3(C)Cc4cnn(C5CCCCC5)c4C[C@@H]3CO)CC[C@]12C` [Ia-16, ((5R,6S)-5-((3aS,4R,5S,7aS)-4-(aminomethyl)-7a-methyl-1-methyleneoctahydro-1H-inden-5-yl)-1-cyclohexyl-5-methyl-4,5,6,7-tetrahydro-1H-indazol-6-yl)methanol], the EC50 in series [1] (setting [3]) lay within 2 to 6 µM. Besides, the “Scoring (% of drug remaining after 60 minutes, PDR60)” value in series [2] was “B (a PDR^60 of 61 to 80%)”.
The like results for `C=C1CC[C@H]2[C@H](CN)[C@@H]([C@@]3(C)Cc4cnn(-c5cccnc5)c4C[C@@H]3CO)CC[C@]12C` [Ia-20, ((5R,6S)-5-((3aS,4R,5S,7aS)-4-(aminomethyl)-7a-methyl-1-methyleneoctahydro-1H-inden-5-yl)-5-methyl-1-(pyridin-3-yl)-4,5,6,7-tetrahydro-1H-indazol-6-yl)methanol] were, in that order, 6 to 15 µM and “D (a PDR^60 of 0 to 30%)”.
`CC(C)CCC[C@@H](C)[C@H]1CC[C@H]2[C@H](CN)[C@@H]([C@@]3(C)Cc4cn[nH]c4C[C@@H]3CN)CC[C@]12C` [Ia-57, ((1R,3aS,4S,5S,7aR)-5-((5R,6S)-6-(aminomethyl)-5-methyl-4,5,6,7-tetrahydro-1H-indazol-5-yl)-7a-methyl-1-((R)-6-methylheptan-2-yl)octahydro-1H-inden-4-yl)methanamine]: in series [2], the “Scoring (% of drug remaining after 60 minutes, PDR60)” value is on record as “A (a PDR^60 of 81 to 100%)”.
On to `C[C@H]1CC[C@H]2[C@H](CO)[C@@H]([C@@]3(C)Cc4cn[nH]c4C[C@@H]3CO)CC[C@]12C` [Ia-5, ((5R,6S)-5-((1S,3aS,4S,5S,7aR)-4-(hydroxymethyl)-1,7a-dimethyloctahydro-1H-inden-5-yl)-5-methyl-4,5,6,7-tetrahydro-1H-indazol-6-yl)methanol], for which the “Scoring (% of drug remaining after 60 minutes, PDR60)” value in series [2] was “D (a PDR^60 of 0 to 30%)”.
With `C[C@H]1CC[C@H]2[C@H](CN)[C@@H]([C@@]3(C)Cc4cnn(C(C)(C)C)c4C[C@@H]3CO)CC[C@]12C` [Ia-40, ((5R,6S)-5-((1S,3aS,4S,5S,7aR)-4-(aminomethyl)-1,7a-dimethyloctahydro-1H-inden-5-yl)-1-(tert-butyl)-5-methyl-4,5,6,7-tetrahydro-1H-indazol-6-yl)methanol], in series [1] (setting [3]), the EC50 lay in the range of 2 to 6 µM.
On the same count and under the same terms, for `C[C@H]1CC[C@H]2[C@H](CN)[C@@H]([C@@]3(C)Cc4cnn(C5CCCCC5)c4C[C@@H]3CO)CC[C@]12C` [Ia-37, ((5R,6S)-5-((1S,3aS,4S,5S,7aR)-4-(aminomethyl)-1,7a-dimethyloctahydro-1H-inden-5-yl)-1-cyclohexyl-5-methyl-4,5,6,7-tetrahydro-1H-indazol-6-yl)methanol] the value was below 2 µM.
In the case of `C[C@]1([C@H]2CC[C@]3(C)C=CC[C@H]3[C@@H]2CN)Cc2cn[nH]c2C[C@@H]1CO` [Ia-28, ((5R,6S)-5-((3aR,6S,7R,7aS)-7-(aminomethyl)-3a-methyl-3a,4,5,6,7,7a-hexahydro-1H-inden-6-yl)-5-methyl-4,5,6,7-tetrahydro-1H-indazol-6-yl)methanol], the “Scoring (% of drug remaining after 60 minutes, PDR60)” value in series [2] is “A (a PDR^60 of 81 to 100%)”.
Turning to `C=C1CC[C@H]2[C@H](CN)[C@@H]([C@@]3(C)Cc4cn(CC(C)(C)C)nc4C[C@@H]3CO)CC[C@]12C` [Ia-23, ((5R,6S)-5-((3aS,4R,5S,7aS)-4-(aminomethyl)-7a-methyl-1-methyleneoctahydro-1H-inden-5-yl)-5-methyl-2-neopentyl-4,5,6,7-tetrahydro-2H-indazol-6-yl)methanol], the EC50 in series [1] (setting [3]) fell in the range of 2 to 6 µM.
In the case of `C=C1CC[C@H]2[C@H](CN)[C@@H]([C@@]3(C)Cc4cn[nH]c4C[C@@H]3CN)CC[C@]12C` [Ia-58, ((3aS,4R,5S,7aS)-5-((5R,6S)-6-(aminomethyl)-5-methyl-4,5,6,7-tetrahydro-1H-indazol-5-yl)-7a-methyl-1-methyleneoctahydro-1H-inden-4-yl)methanamine], the “Scoring (% of drug remaining after 60 minutes, PDR60)” value in series [2] is “A (a PDR^60 of 81 to 100%)”.
Consider `C[C@H]1CC[C@H]2[C@H](CN)[C@@H]([C@@]3(C)Cc4cnn(CC(C)(C)C)c4C[C@@H]3CO)CC[C@]12C` [Ia-38, ((5R,6S)-5-((1S,3aS,4S,5S,7aR)-4-(aminomethyl)-1,7a-dimethyloctahydro-1H-inden-5-yl)-5-methyl-1-neopentyl-4,5,6,7-tetrahydro-1H-indazol-6-yl)methanol], for which, in series [1] (setting [3]), the EC50 was below 2 µM.
As for `C[C@H]1CC[C@H]2[C@H](CN)[C@@H]([C@@]3(C)Cc4cn(-c5ccccn5)nc4C[C@@H]3CO)CC[C@]12C` [Ia-43, ((5R,6S)-5-((1S,3aS,4S,5S,7aR)-4-(aminomethyl)-1,7a-dimethyloctahydro-1H-inden-5-yl)-5-methyl-2-(pyridin-2-yl)-4,5,6,7-tetrahydro-2H-indazol-6-yl)methanol], the EC50 in series [1] (setting [3]) is below 2 µM.
Take `CCOc1ccc2ccc(=O)oc2c1` [7-ethoxycoumarin, reference compound]: in series [2], the “Average PDR60” value is on record as “<= 65%”.
